Data on one molecule can be found in patent US20260137700A1, “PHARMACEUTICAL COMBINATION OF PRMT5 INHIBITOR AND DNA DAMAGE-INDUCING SUBSTANCE” (SK Biopharmaceuticals Co., Ltd., priority 2022, published 2026).

Test [1] concerns symmetric dimethyl arginine (SDMA). As to the kind of experiment: In vivo target inhibition: SDMA ELISA in tumor samples of the Mia PaCa-2 xenograft mouse model. As to the method:
Quantitative reduction levels of symmetric dimethyl arginine (SDMA) in tumor samples harvested from a subcutaneous xenograft mouse model of Mia PaCa-2 were measured by enzyme-linked immunosorbent assay (ELISA).
Reagents: Bradford solution (catalog no. 500-0006) was purchased from Bio-rad (USA). SDMA antibody (catalog no. 13222s) was purchased from Cell signaling Technology (USA). SmD3 antibody (catalog no. ap12451a) was purchased from Abgent (USA). Secondary antibody (catalog no. ab6721) and TMB substrate (catalog no. ab210902) were purchased from Abcam (UK).
Experimental procedure: Tumor tissue transplanted into mice was extracted, cells were lysed, and quantified with Bradford solution. […] of protein per sample was diluted with carbonate-bicarbonate buffer, dispensed into a 96-well plate, and reacted at room temperature for 2 hours. After washing three times with phosphate-buffered saline (PBST) containing 0.05% Tween-20, 200 μL of PBST containing 5% bovine serum albumin (BSA) (BSA-PBST) was added, and reacted at room temperature for 2 hours. After washing three times with PBST, 100 μL of SDMA antibody and SmD3 antibody were diluted in BSA-PBST, each was dispensed, and reacted overnight at 4° C. After washing three times with PBST on next day, 100 μL of secondary antibody diluted in BSA-PBST was added, and reacted at room temperature for 1 hour. After washing three times with PBST, 100 μL of TMB substrate was added and reacted at room temperature for 10-20 minutes, and 100 μL of 1N sulfuric acid solution was added to terminate the reaction. Then, the degree of SDMA inhibition by the compound was calculated by measuring the absorbance at 450 nm.
For orientation: ELISA stands for enzyme-linked immunosorbent assay.

Test [2] relates to human pancreatic cancer cells CAPAN-1. As to the kind of experiment: Subcutaneous xenograft mouse model of CAPAN-1 pancreatic cancer cells, tumor volume. Format: in vivo. As to conditions: Day 31, solvent group 1,017 mm^3. On the procedure: For in vivo efficacy studies in a subcutaneous xenograft mouse model of human pancreatic cancer cells CAPAN-1, co-administration of compound-87 as a PRMT5 inhibitor according to one example of the present invention and Gemcitabine as an anti-metabolite of a chemotherapeutic agent, was performed.
To produce a pancreatic cancer xenograft model, 5 million CAPAN-1 cells were injected subcutaneously into the right flank of female nude mice, and tumor growth was monitored.
To evaluate the anticancer effect, when the tumor volume reached approximately 185 mm^3 on average, the mice were divided into six groups. The all group included the solvent-treated group (vehicle group), the compound-87 monotherapy group (25 mg/kg or 50 mg/kg), the gemcitabine monotherapy group (50 mg/kg), combination therapy group of the compound-87 (25 mg/kg or 50 mg/kg), and the gemcitabine. The vehicle A group or the compound-87 treatment group was administered orally on a 3-day administration/4-day non-administration schedule, and the vehicle B group or the gemcitabine treatment group was administered intraperitoneally twice a week.

Test [3] concerns cancer cell lines of Table 2 (A549, A549/CR, A549/PR, CAPAN-1, NCI-H1048, MDA-MB-231, Mia PaCa-2, SNU-324, OVCAR3, PA-1, PANC-1, U-87 MG). In words: Cell viability assay (WST) with combination synergy analysis (Bliss score). Format: cell-based, human. As to conditions: combination with various DNA damage inducers, FIGS. 1 to 25; culture ended on days 7 to 9. On the procedure:
Most cell lines were obtained from the American Type Culture Collection (ATCC) or the Korean Cell Line Bank (KCLB). Combination experiments in cisplatin-resistant and paclitaxel-resistant cell lines were performed at the Asan Preclinical Evaluation center for cancer therapeutiX of Asan Medical Center, Seoul. All cell lines were maintained in appropriate growth medium for the cell line in 100-pi dishes oRT75 (75 cm2) flasks, cultured at 37° C. with 5% CO2, and passaged every 3-4 days. Growth medium conditions and cell line information are listed in Table 2, and the cells were counted using Countess (Invitrogen) to obtain the number of viable cells. Mutation and HRD status by cell type are described in Table 3.
The next day, compound-87 was diluted 1/2 to 1/4 to a concentration of 20 μM to 0.002 μM and treated at a set concentration range, and the co-administered drug was diluted 1/2 to 1/3 to a concentration of 100 μM to 0.00046 μM and treated at a 1:1 (v/v) ratio. Finally, the treatment ratio of compound-87 and the co-administered substance was between 1:20000 and 1:0.00015, and in clinical practice, compound-87: drug to be co-administered can be treated at a ratio of 1:10000 to 1:0.0001.
PANC-1 (wild-type BRCA1/BRCA2) pancreatic cancer cells were treated with compound-87 at concentrations of […], and E7016, a PARP inhibitor as a co-administered agent at concentration of 0.078, 0.156, 0.313, 0.625, 1.25, 2.5, 5, or 10 μM (FIG. 25). Cell culture was terminated on days 7 to 9, and cell viability and synergistic effect were evaluated for each combination of concentrations.
Cell viability was measured by a colorimetric assay using water-soluble tetrazolium salt (WST). […]
Results are normalized to DMSO-treated groups as 100% and expressed as the percent of viable cells upon compound addition. […]
The synergy of each compound was analyzed using Combenefit software (Cambridge Research UK, Cambridge Institute, University of Cambridge, United Kingdom), and synergy was evaluated by using Blliss (Ref: Di Veroli et al., 2016, Bioinformatics 32(18):2866-2868). […]

Regarding `CN1CCC(Oc2ccc3c(c2)OCCN(C[C@H](O)CN2CCc4ccccc4C2)C3=O)CC1` [Compound-87, 4-[(2R)-3-(3,4-dihydro-1H-isoquinolin-2-yl)-2-hydroxy-propyl]-8-[(1-methyl-4-piperidyl)oxy]-2,3-dihydro-1,4-benzoxazepin-5-one], the “SDMA amount in tumor samples compared to the vehicle group” value in test [1] (25 mg/kg Compound-87, 3 days on/4 off for 24 days) is 37.4%; in test [1] (50 mg/kg Compound-87, 3 days on/4 off for 24 days), 27.7%. Moreover, testing at 25 mg/kg in test [1] (Mus musculus, MIA PaCa-2, 25 mg/kg Compound-87, 3 days on/4 off for 24 days) gave an inhibition of 62.6%. In test [1] (Mus musculus, MIA PaCa-2, 50 mg/kg Compound-87, 3 days on/4 off for 24 days), the inhibition at 50 mg/kg came to 72.3%. For the same molecule, the tumor volume came to 379 mm^3 in test [2] (Compound-87 25 mg/kg oral (3 days on/4 off) in combination with gemcitabine 50 mg/kg i.p. twice a week) and 235 mm^3 in test [2] (Compound-87 50 mg/kg oral (3 days on/4 off) in combination with gemcitabine 50 mg/kg i.p. twice a week). Besides, the “inhibition of cell viability, combination treatment compared to single agent” value in test [3] is “enhanced inhibition effects of cell viability”.

As a reminder, the inhibition is the share of the control response that was lost under treatment. Read a high inhibition as strong suppression.
